Literature values in EP0404807B1, “DEPRENYL FOR SYSTEMIC TRANSDERMAL ADMINISTRATION” (SOMERSET PHARMACEUTICALS, INC., priority 1988, dated 1989).

Details: deprenyl alone, as stated in EP 0241809 A

For C#CCN(C)C(C)Cc1ccccc1 (stereo not shown) [deprenyl, N-methyl-N-(1-phenyl-2-propyl)-2-propinylamine], the anti-Parkinsonism action is listed as “almost no anti-Parkinsonism action”.
